# Assay results: article PMC12412055, “Parallel synthesis of 5′-amino-5′-deoxy-adenosine derivatives for focused chemical space exploration and their application as methyltransferase inhibitors” (RSC Medicinal Chemistry, 2025)
# Values joined by “and” are separate entries in the source; they are usually repeats but may differ in a detail not shown here. Equal values may be shown once. Read-outs that look alike come from different tables or passages of the source.
# How the values were obtained:
# nsp14/10 [1] = target: T1, nsp14/10 (Severe acute respiratory syndrome coronavirus 2, UniProt P0DTD1); test: biochemical; type: binding; settings: for Kd: read-out: KD (ITC)
# nsp14/10 [2] = target: T1, nsp14/10; settings: cited from earlier work
# SARS-CoV-2 nsp14/10 = SARS-CoV-2 nsp14/10 (Severe acute respiratory syndrome coronavirus 2, UniProt P0DTD1); test: Fluorescence polarization (FP) FTAD displacement assay, nsp14/10; type: binding; settings: for displacement of FTAD: 1 μM compound; for Kd: 50 nM FTAD
# METTL3/14 [3] = target: T2, METTL3/14 (Homo sapiens, UniProt Q86U44); test: Fluorescence polarization (FP) FTAD displacement assay, METTL3/14; type: binding; settings: for KD (METTL3/14, FP-assay) / Kd / displacement of FTAD: 50 nM FTAD, 1 μM enzyme; for KD (METTL3/14, FP-assay) / Kd: compound dilution series; for displacement of FTAD: 100 μM compound
# T2 construct: human METTL3 (UniProt: Q86U44 aa 252–580); Strep tag-II (C); made in house; host or cells: E. coli BL21(DE3), pETduet-1
# T2 sequence (Q86U44 252-580): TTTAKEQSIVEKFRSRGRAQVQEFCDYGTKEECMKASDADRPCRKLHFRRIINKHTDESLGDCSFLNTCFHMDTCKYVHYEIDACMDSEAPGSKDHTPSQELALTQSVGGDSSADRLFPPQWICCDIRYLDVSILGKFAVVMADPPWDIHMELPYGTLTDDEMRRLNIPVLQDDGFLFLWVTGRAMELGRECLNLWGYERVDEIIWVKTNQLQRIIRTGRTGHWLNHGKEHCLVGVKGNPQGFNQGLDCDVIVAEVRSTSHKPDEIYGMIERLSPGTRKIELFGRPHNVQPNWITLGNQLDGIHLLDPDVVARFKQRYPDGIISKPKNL
# T2 sequence (Q9HCE5 108-444 partner limits assumed): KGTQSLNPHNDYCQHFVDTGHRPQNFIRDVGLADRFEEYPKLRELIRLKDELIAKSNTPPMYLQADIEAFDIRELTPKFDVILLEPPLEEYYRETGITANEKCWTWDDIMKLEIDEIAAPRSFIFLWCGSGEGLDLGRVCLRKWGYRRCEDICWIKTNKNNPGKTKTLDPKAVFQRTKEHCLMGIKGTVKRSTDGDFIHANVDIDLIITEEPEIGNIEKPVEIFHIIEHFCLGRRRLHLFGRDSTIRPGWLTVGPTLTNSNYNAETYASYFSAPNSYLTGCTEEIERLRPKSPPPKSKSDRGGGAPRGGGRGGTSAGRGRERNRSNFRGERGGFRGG
# METTL3/14 [4] = target: T2, METTL3/14; set-up: method as in PMID 39145518; settings: probe affinity; read-out: KD of FTAD for METTL3/14; cited from earlier work
# nsp14/10 [5] = target: T1, nsp14/10; test: Microscale thermophoresis (MST) FTAD displacement assay; type: binding; settings: 50 nM FTAD, 3-fold dilution series of nsp14/10
# human DNMT2 = target: human DNMT2; set-up: method as in PMID 39145518; settings: probe affinity; read-out: KD of FTAD for DNMT2; cited from earlier work
# [6] = mean ± standard deviation from duplicate measurements, 25 °C
# [7] = single measurement (one of duplicates)
# [8] = ligand 0.305 µM, dilution series
# [9] = ligand 0.914 µM, dilution series
# [10] = ligand 2.74 µM, dilution series
# [11] = ligand 8.22 µM, dilution series
# [12] = ligand 24.7 µM, dilution series
# [13] = ligand 74.0 µM, dilution series
# [14] = ligand 100 µM, triplicate wells
# [15] = ligand 100 µM, triplicate wells, enzyme not printed in Table S4
# [16] = 1 μM enzyme, compound dilution series, read-out: KD (nsp14/10, determined by FP-assay)
compound,measurement,setting,value
"Nc1ncnc2c1ncn2[C@@H]1O[C@H](CNS(=O)(=O)c2ccc3ccccc3c2)[C@@H](O)[C@H]1O [Compound 34, N-(((2R,3S,4R,5R)-5-(6-Amino-9H-purin-9-yl)-3,4-dihydroxy-tetrahydrofuran-2-yl)methyl)naphthalene-2-sulfonamide]",KD (ITC),nsp14/10 [1]; [6],nanomolar range
same,-T∆S (ITC),nsp14/10 [1]; [7],12 kcal/mol and 14.9 kcal/mol
same,stoichiometry n (ITC),nsp14/10 [1]; [7],0.66 and 0.67
same,Kd,nsp14/10 [1]; [7],165 nM and 214 nM
same,binding and inhibition of nsp14/10,nsp14/10 [2],nanomolar range
same,displacement of FTAD,SARS-CoV-2 nsp14/10,100%
same,"KD (METTL3/14, FP-assay)",METTL3/14 [3],low micromolar affinity
same,Kd,METTL3/14 [3],12900 ± 2000 nM
same,displacement of FTAD,METTL3/14 [3],~92%
"Nc1ncnc2c1ncn2[C@@H]1O[C@H](CNS(=O)(=O)/C=C/c2ccccc2)[C@@H](O)[C@H]1O [Compound 35, (E)-N-(((2R,3S,4R,5R)-5-(6-Amino-9H-purin-9-yl)-3,4-di-hydroxytetrahydrofuran-2-yl)methyl)-2-phenylethene-1-sulfonamide]",ΔH (ITC),nsp14/10 [1]; mean ± standard deviation from duplicate measurements,-32.86 kcal/mol
same,KD (ITC),nsp14/10 [1]; [6],nanomolar range
same,-T∆S (ITC),nsp14/10 [1]; [7],24.6 kcal/mol and 22.5 kcal/mol
same,stoichiometry n (ITC),nsp14/10 [1]; [7],0.42 and 0.45
same,Kd,nsp14/10 [1]; [7],151 nM and 169 nM
same,displacement of FTAD,SARS-CoV-2 nsp14/10,100%
"Nc1ncnc2c1ncn2[C@@H]1O[C@H](CNS(=O)(=O)c2ccc(-c3ccccc3)cc2)[C@@H](O)[C@H]1O [Compound 40, N-(((2R,3S,4R,5R)-5-(6-Amino-9H-purin-9-yl)-3,4-dihydroxy-tetrahydrofuran-2-yl)methyl)-[1,1′-biphenyl]-4-sulfonamide]","KD (METTL3/14, FP-assay)",METTL3/14 [3],low micromolar affinity
same,Kd,METTL3/14 [3],16100 ± 4600 nM
same,displacement of FTAD,METTL3/14 [3],~92%
"CN(C)c1cccc2c(S(=O)(=O)NC[C@H]3O[C@@H](n4cnc5c(N)ncnc54)[C@H](O)[C@@H]3O)cccc12 [Compound 42, N-(((2R,3S,4R,5R)-5-(6-Amino-9H-purin-9-yl)-3,4-dihydroxy-tetrahydrofuran-2-yl)methyl)-5-(dimethylamino)naphthalen-1-sulfonamide]","KD (METTL3/14, FP-assay)",METTL3/14 [3],low micromolar affinity
same,Kd,METTL3/14 [3],22500 ± 1400 nM
same,displacement of FTAD,METTL3/14 [3],~92%
same,"fluorescence polarization, raw data",METTL3/14 [3]; [8],144 mP and 142 mP and 140 mP
same,"total intensity, raw data",METTL3/14 [3]; [8],16997 and 14743 and 15446
same,"fluorescence polarization, raw data",METTL3/14 [3]; [9],131 mP and 134 mP and 139 mP
same,"total intensity, raw data",METTL3/14 [3]; [9],16613 and 15443 and 18075
same,"fluorescence polarization, raw data",METTL3/14 [3]; [10],128 mP and 126 mP
same,"total intensity, raw data",METTL3/14 [3]; [10],15091 and 15438 and 15739
same,"fluorescence polarization, raw data",METTL3/14 [3]; [11],116 mP and 113 mP and 115 mP
same,"total intensity, raw data",METTL3/14 [3]; [11],16190 and 14718 and 16069
same,"fluorescence polarization, raw data",METTL3/14 [3]; [12],90 mP and 84 mP and 93 mP
same,"total intensity, raw data",METTL3/14 [3]; [12],17750 and 16617 and 17703
same,"fluorescence polarization, raw data",METTL3/14 [3]; [13],40 mP and 43 mP and 54 mP
same,"total intensity, raw data",METTL3/14 [3]; [13],17281 and 16313 and 18091
same,"total intensity, raw data",METTL3/14 [3]; [14],18205 and 16177 and 16524
same,"fluorescence polarization, raw data",METTL3/14 [3]; [15],44 mP and 42 mP and 39 mP
same,"fluorescence polarization, raw data","METTL3/14 [3]; ligand 222 µM, dilution series",23 mP and 28 mP and 40 mP
same,"total intensity, raw data","METTL3/14 [3]; ligand 222 µM, dilution series",22984 and 20625 and 20534
same,"fluorescence polarization, raw data","METTL3/14 [3]; ligand 666 µM, dilution series",30 mP and 36 mP and 33 mP
same,"total intensity, raw data","METTL3/14 [3]; ligand 666 µM, dilution series",25251 and 24796 and 26626
"Nc1ncnc2c1ncn2[C@@H]1O[C@H](CNS(=O)(=O)c2ccc(Br)c([N+](=O)[O-])c2)[C@@H](O)[C@H]1O [Compound 44, N-(((2R,3S,4R,5R)-5-(6-Amino-9H-purin-9-yl)-3,4-dihydroxytetrahydrofuran-2-yl)methyl)-4-bromo-3-nitrobenzenesulfon amide]",inhibition of nsp14/10,nsp14/10 [2],low micromolar range
"Nc1ncnc2c1ncn2[C@@H]1O[C@H](CNS(=O)(=O)c2ccc(Cl)c(C(F)(F)F)c2)[C@@H](O)[C@H]1O [Compound 46, N-(((2R,3S,4R,5R)-5-(6-Amino-9H-purin-9-yl)-3,4-dihydroxy-tetrahydrofuran-2-yl)methyl)-4-chloro-3-(trifluoromethyl) benzenesulfonamide]",KD (ITC),nsp14/10 [1]; [6],nanomolar range
same,Kd,nsp14/10 [1]; [6],106 ± 6 nM
same,-T∆S (ITC),nsp14/10 [1]; [7],15.8 kcal/mol and 13.8 kcal/mol
same,stoichiometry n (ITC),nsp14/10 [1]; [7],0.43 and 0.44
same,Kd,nsp14/10 [1]; [7],111 nM and 100 nM
same,displacement of FTAD,SARS-CoV-2 nsp14/10,100%
"Cc1ccc(S(=O)(=O)NC[C@H]2O[C@@H](n3cnc4c(N)ncnc43)[C@H](O)[C@@H]2O)cc1[N+](=O)[O-] [Compound 47, N-(((2R,3S,4R,5R)-5-(6-Amino-9H-purin-9-yl)-3,4-dihydroxy-tetrahydrofuran-2-yl)methyl)-4-methyl-3-nitrobenzenesulfon amide]",inhibition of nsp14/10,nsp14/10 [2],low micromolar range
"Nc1ncnc2c1ncn2[C@@H]1O[C@H](CNC(=O)Cc2cccc(F)c2Br)[C@@H](O)[C@H]1O [Compound 63, N-(((2R,3S,4R,5R)-5-(6-Amino-9H-purin-9-yl)-3,4-dihydroxytetra hydrofuran-2-yl)methyl)-2-(2-bromo-3-fluorophenyl)acetamide]",Kd,SARS-CoV-2 nsp14/10; [16],17200 ± 5500 nM
"Cc1cccc(-c2cncc(C(=O)NC[C@H]3O[C@@H](n4cnc5c(N)ncnc54)[C@H](O)[C@@H]3O)c2)c1 [Compound 64, N-(((2R,3S,4R,5R)-5-(6-Amino-9H-purin-9-yl)-3,4-dihydroxytetra hydrofuran-2-yl)methyl)-5-(m-tolyl)nicotinamide]",Kd,SARS-CoV-2 nsp14/10; [16],2900 ± 380 nM
"Nc1ncnc2c1ncn2[C@@H]1O[C@H](CNS(=O)(=O)Cc2ccc3ccccc3c2)[C@@H](O)[C@H]1O [Compound 65, N-(((2R,3S,4R,5R)-5-(6-Amino-9H-purin-9-yl)-3,4-dihydroxytetra hydrofuran-2-yl)methyl)-1-(naphthalen-2-yl)methanesulfon amide]",Kd,SARS-CoV-2 nsp14/10; [16],3800 ± 780 nM
"Nc1ncnc2c1ncn2[C@@H]1O[C@H](CNS(=O)(=O)Cc2ccccc2)[C@@H](O)[C@H]1O [Compound 66, N-(((2R,3S,4R,5R)-5-(6-Amino-9H-purin-9-yl)-3,4-dihydroxytetra hydrofuran-2-yl)methyl)-1-phenylmethanesulfonamide]",Kd,SARS-CoV-2 nsp14/10; [16],42300 ± 11100 nM
"Nc1ncnc2c1ncn2[C@@H]1O[C@H](CN(CC[C@H](N)C(=O)O)Cc2cn(CCNC(=O)c3ccc4c(c3)C(=O)OC43c4ccc(O)cc4Oc4cc(O)ccc43)nn2)[C@@H](O)[C@H]1O [FTAD, 5-FAM-triazolyl-adenosyl-diaminobutyric acid]",Kd,METTL3/14 [4],1100 ± 100 nM
same,Kd,nsp14/10 [5],1200 ± 100 nM
same,Kd,"SARS-CoV-2 nsp14/10; 2-fold dilution series of nsp14/10 from 3.00 μM to 46.9 nM, read-out: KD(FTAD, nsp14/10), FP-assay",1300 ± 300 nM
same,Kd,human DNMT2,6400 ± 700 nM
"Nc1ncnc2c1ncn2[C@@H]1O[C@H](CSCC[C@H](N)C(=O)O)[C@@H](O)[C@H]1O [SAH, S-adenosyl-L-homocysteine, reference compound]","total intensity, raw data",METTL3/14 [3]; [14],15527 and 14218 and 14357
same,"fluorescence polarization, raw data",METTL3/14 [3]; [15],13 mP and 7 mP and 8 mP
"Nc1ncnc2c1ncn2[C@@H]1O[C@H](C[C@@H](N)CC[C@H](N)C(=O)O)[C@@H](O)[C@H]1O [SFG, sinefungin, reference compound]",displacement of FTAD,METTL3/14 [3],92%
